Two compounds from patent US7713969B2, “Compositions and methods for treatment of cancer” (ArQule, Inc., priority 2005, dated 2010) can be followed below.

Data set [1] has as its system MDA-MB-231 human breast cancer xenograft. The experiment in a line: MDA-MB-231 xenograft, intraperitoneal 80 mg/kg (Example 82). The data set is classed as in vivo, mice. The note with it: 80 mg/kg intraperitoneally, 5 days on/2 off, four cycles, DMA/PEG 400. How it is done:
Athymic female nude mice (CRL:NU/NU-nuBR) were injected subcutaneously in the flank with MDA-MB-231 human breast cancer cells (8×10^6 cells/mouse). Prior to injection, MDA-MB-231 cells were cultured in DMEM (Invitrogen #11965-092) supplemented with 10% (v/v) heat inactivated fetal bovine serum (FBS), 1% Hepes buffer solution (Invitrogen #15630-080) and 1% Penicillin/Streptomycin (Invitrogen #15140-122) at 37° C. in 5% CO2. Tumors were allowed to grow to approximately 50 mm^3 in size. Animals were randomized into three groups of eight animals per group. At day four post injection, mice with established tumors were treated intraperitoneally with (±)-Cis-3-(5,6-dihydro-4H-pyrrolo[3,2,1-ij]quinolin-1yl)-4(1H-indol-3-yl)pyrrolidine-2,5-dione (80 mg/kg), (±)-Trans-3-(5,6-dihydro-4H-pyrrolo[3,2,1-ij]quinolin-1-yl)-4(1H-indol-3-yl)pyrrolidine-2,5-dione (80 mg/kg) administered in DMA/PEG 400 (1:4 v/v) as the vehicle at 50 mg/ml, or vehicle control intraperitoneally. […] Tumor size was evaluated periodically during the study. For each subject, tumor volume was calculated using the formula (L×W^2)/2 where L and W were the length and width of the tumor, respectively. The arithmetic mean tumor volume was calculated for each treatment group+/−standard error of the mean (SEM). […]

Data set [2] relates to A549 human lung cancer cells. The experiment in a line: Annexin V / propidium iodide staining (Example 84). The conditions noted are these: 1.2 μM, 38 hours. The data set is classed as cell-based. Here is the method:
A549 human lung cancer cells in a 96-well plate (Costar 3603, 5,000/well) were treated with either A) DMSO as a control; B) 1.2 μM (−)-trans-3-(5,6-dihydro-4H-pyrrolo[3,2,1-ij]quinolin-1-yl)-4(1H-indol-3-yl)pyrrolidine-2,5-dione for 38 hours before addition of 1:200 fluorescent Annexin V (green) and 1:500 Propidium iodide (magenta, final concentration of 1 μg/mL). The labeling procedure was allowed to process at 37° C. for 20 minutes followed by image acquisition and analysis using an IC100 Image Cytometer (Beckman Coulter, Inc) with 10× amplification.
To determine whether (−)-trans-3-(5,6-dihydro-4H-pyrrolo[3,2,1-ij]quinolin-1-yl)-4(1H-indol-3-yl)pyrrolidine-2,5-dione works primarily through a cytostatic or apoptotic mechanism, cancer cells exposed to (−)-trans-3-(5,6-dihydro-4H-pyrrolo[3,2,1-ij]quinolin-1-yl)-4(1H-indol-3-yl) pyrrolidine-2,5-dione were stained with fluorescently labeled Annexin V (green fluorescence) and propidium iodide (bright magenta fluorescence). Annexin V is a well-validated reagent that specifically binds with high affinity to externalized membrane phosphatidylserine, an early marker of the onset of apoptosis, while propidium iodide is a marker for dead cells. […] (See FIG. 8)

Data set [3] relates to MDA-MB-231 human breast cancer xenograft. As to the kind of experiment: Breast cancer xenograft model (Example 86). The data set is classed as in vivo, mice. Here is the method: MDA-MB-231 human breast cancer cells were inoculated subcutaneously into female athymic nude mice (8.0×10^6 cells/mouse) and allowed to form palpable tumors. Once the tumors reached approximately 60 mm^3, the animals were treated orally with (−)-trans-3-(5,6-dihydro-4H-pyrrolo[3,2,1-ij]quinolin-1-yl)-4(1H-indol-3-yl)pyrrolidine-2,5-dione at 200 mg/kg or vehicle control daily (5 consecutive days, followed by a 2 day dosing holiday). (−)-trans-3-(5,6-dihydro-4H-pyrrolo[3,2,1-ij]quinolin-1-yl)-4(1H-indol-3-yl)pyrrolidine-2,5-dione was formulated in PEG 400:20% Vitamin E TPGS (60:40). The animals received a total of 20 doses of (−)-trans-3-(5,6-dihydro-4H-pyrrolo[3,2,1-ij]quinolin-1-yl)-4(1H-indol-3-yl)pyrrolidine-2,5-dione or vehicle control. Tumors were measured throughout treatment and the post-treatment observation period. Each point represents the mean±SEM of ten tumors. (See FIG. 10)

Data set [4] relates to human tumor cell lines. The experiment in a line: Colony formation assay, summary across cell lines. The data set is classed as cell-based. The conditions noted are these: c-Met expressing solid tumor types, 24 hours exposure, read-out: IC50 for c-Met expressing solid tumor types (CFA). Here is the method:
To determine c-met inhibition, exponentially growing MCF-7 and MDA-MB-231 human breast cancer cells, DLD1 and HT29 human colon cancer cells, PACA2 and PANC-1 human pancreatic cancer cells and NCI-H441 human non-small cell lung cancer cells (H441) were serum starved in 0.5% FBS and treated with increasing amounts of (−)-trans-3-(5,6-dihydro-4H-pyrrolo [3,2,1-ij]quinolin-1-yl)-4(1H-indol-3-yl)pyrrolidine-2,5-dione for 24 hours as indicated. Cells were then left unstimulated or stimulated with 100 ng/mL HGF for 10 minutes and whole cell extracts were prepared. […] Percent inhibition was determined by densitometry using the Scion Image For colony formation assays (CFA), exponentially growing cells were seeded at 2,000 cells per well in 6-well plates and allowed to attach for 24 hours. […] Colonies of greater than 50 cells were scored as survivors and percentage of cell survival was plotted to determine the IC50. […] The IC50 of (−)-trans-3-(5,6-dihydro-4H-pyrrolo[3,2,1-ij]quinolin-1-yl)-4(1H-indol-3-yl) pyrrolidine-2,5-dione for c-Met expressing solid tumor types is in the 0.1-0.7 μM range following exposure to (−)-trans-3-(5,6-dihydro-4H-pyrrolo[3,2,1-ij]quinolin-1-yl)-4(1H-indol-3-yl)pyrrolidine-2,5-dione for 24 hours, as determined by colony formation assay (CFA).

Each structure is given as a SMILES string. pIC50: −log10 of the molar value.

Regarding `O=C1NC(=O)[C@@H](c2cn3c4c(cccc24)CCC3)[C@@H]1c1c[nH]c2ccccc12` (racemic) [(±)-Trans-3-(5,6-dihydro-4H-pyrrolo[3,2,1-ij]quinolin-1-yl)-4(1H-indol-3-yl)pyrrolidine-2,5-dione], the “reduction of mean tumor volume compared to vehicle treated control” value in data set [1] was 69.4%.
In the case of `O=C1NC(=O)C(c2cn3c4c(cccc24)CCC3)C1c1c[nH]c2ccccc12` (single isomer, unassigned; (-)), in data set [2], the “apoptosis evidenced by Annexin V staining” value was “induced cells to undergo apoptosis”; the “cells that co-stain with both Annexin V and propidium iodide” value is 10-20%. Further, the “change in body weight” value in data set [3] (200 mg/kg oral administration) is listed as “no significant change in body weight”. Moreover, the Tumor growth inhibition in data set [3] (200 mg/kg orally, daily 5 days on/2 off, 20 doses) was found to be 79%. Moreover, the pIC50 in data set [4] is 6.15 to 7.00.

Broadly, the pIC50 is the IC50 on a negative log10 scale, so that one unit is a factor of ten.
